These results are taken from patent US8912207B2, “2-aldoximino-5-fluoropyrimidine derivatives” (Dow AgroSciences, LLP., priority 2009, dated 2014).

For data set [1], the system named is Mycosphaerella graminicola; anamorph: Septoria tritici; Bayer code SEPTTR. The experiment in a line: Fungicidal activity: leaf blotch of wheat, one-day protectant (1DP) and three-day curative (3DC) tests on wheat plants. In kind it is in vivo, Septoria tritici on wheat plants (variety Yuma). The note with it: Zymoseptoria tritici, rating of % disease control vs untreated inoculated plants. The procedure: Evaluation of Fungicidal Activity: Leaf Blotch of Wheat (Mycosphaerella graminicola; anamorph: Septoria tritici; Bayer code […]) Wheat plants (variety Yuma) were grown from seed in a greenhouse in 50% mineral soil/50% soil-less Metro mix until the first leaf was fully emerged, with 7-10 seedlings per pot. These plants were inoculated with an aqueous spore suspension of Septoria tritici either prior to or after fungicide treatments. After inoculation the plants were kept in 100% relative humidity (one day in a dark dew chamber followed by two to three days in a lighted dew chamber) to permit spores to germinate and infect the leaf. The plants were then transferred to a greenhouse for disease to develop. The following table presents the activity of typical compounds of the present disclosure when evaluated in these experiments. The effectiveness of the test compounds in controlling disease was determined by assessing the severity of disease on treated plants, then converting the severity to percent control based on the level of disease on untreated, inoculated plants. In each case of Table III the rating scale is as follows: […]

Setting [2] is: 24 h, one-day protectant, read-out: SEPTTR 25 ppm 1DP.
[3] abbreviates: 24 h, one-day protectant, read-out: SEPTTR 100 ppm 1DP.
[4] abbreviates: 72 h, three-day curative, read-out: SEPTTR 25 ppm 3DC.
Where [5] appears, read: 72 h, three-day curative, read-out: SEPTTR 100 ppm 3DC.

Each structure is given as a SMILES string. Like-named read-outs stand apart in the source and are kept apart here.

For orientation: melting point means the temperature of the solid-liquid transition. On to `COc1ccc(C=NOc2ncc(F)c(N)n2)cc1` [Compound 12], for which the melting point is 250 to 270 °C (dec.). In addition, the pest or weed control at 25 ppm in data set [1] (setting [2]) lay within 76 to 100%. Moreover, in data set [1] (setting [3]), the pest or weed control at 100 ppm fell in the range of 76 to 100%. In addition, in data set [1] (setting [4]), the pest or weed control at 25 ppm was 76 to 100%. The pest or weed control at 100 ppm in data set [1] (setting [5]) lay in the range of 76 to 100%.
As to `Cc1ccc(C=NOc2ncc(F)c(/N=C/N(C)C)n2)cc1` [Compound 15], the melting point is 247 to 253 °C (dec.). Also, the pest or weed control at 25 ppm in data set [1] (setting [2]) was in the range of 76 to 100%. Further, in data set [1] (setting [3]), the pest or weed control at 100 ppm lay in the range of 76 to 100%. In addition, the pest or weed control at 25 ppm in data set [1] (setting [4]) was in the range of 76 to 100%. Besides, the pest or weed control at 100 ppm in data set [1] (setting [5]) lay in the range of 76 to 100%.
For `CC=NOc1ncc(F)c(N(C)C)n1` [Compound 54], the melting point lay within 122 to 124 °C. In addition, the pest or weed control at 25 ppm in data set [1] (setting [2]) lay in the range of 0 to 25%. Further, in data set [1] (setting [3]), the pest or weed control at 100 ppm was in the range of 0 to 25%. Moreover, the pest or weed control at 25 ppm in data set [1] (setting [4]) is 0 to 25%. Besides, the pest or weed control at 100 ppm in data set [1] (setting [5]) was 0 to 25%.
In the case of `Nc1nc(ON=Cc2ccccc2Cl)ncc1F` [Compound 5, 2-chlorobenzaldehyde O-(4-amino-5-fluoropyrimidin-2-yl)oxime], the melting point was 220 to 230 °C (dec.). Besides, in data set [1] (setting [2]), the pest or weed control at 25 ppm was in the range of 76 to 100%. Besides, the pest or weed control at 100 ppm in data set [1] (setting [3]) is 76 to 100%. The pest or weed control at 25 ppm in data set [1] (setting [4]) is 76 to 100%. Besides, the pest or weed control at 100 ppm in data set [1] (setting [5]) fell in the range of 76 to 100%.
For `CN(C)/C=N/c1nc(ON=Cc2ccc(Cl)cc2)ncc1F` [Compound 2], the melting point was 230 to 242 °C (dec.). Besides, in data set [1] (setting [2]), the pest or weed control at 25 ppm is 76 to 100%. Further, the pest or weed control at 100 ppm in data set [1] (setting [3]) fell in the range of 76 to 100%. Also, in data set [1] (setting [4]), the pest or weed control at 25 ppm was 76 to 100%. In addition, the pest or weed control at 100 ppm in data set [1] (setting [5]) lay within 76 to 100%.
In the case of `CN(C)/C=N/c1nc(ON=Cc2ccccc2)ncc1F` [Compound 1, N′-{5-fluoro-2-[1-phenylmethylideneamino-oxy]pyrimidin-4-yl}-N,N-dimethylformamidine], the melting point was 240 to 244 °C (dec.). In addition, the pest or weed control at 25 ppm in data set [1] (setting [2]) lay within 76 to 100%. The pest or weed control at 100 ppm in data set [1] (setting [3]) was in the range of 76 to 100%. Moreover, in data set [1] (setting [4]), the pest or weed control at 25 ppm lay within 76 to 100%. In data set [1] (setting [5]), the pest or weed control at 100 ppm lay in the range of 76 to 100%.
On to `CN(Cc1ccccc1)c1nc(ON=Cc2ccc(Cl)cc2)ncc1F` [Compound 37], for which the melting point lay in the range of 78 to 81 °C. In data set [1] (setting [2]), the pest or weed control at 25 ppm fell in the range of 0 to 25%. Moreover, the pest or weed control at 100 ppm in data set [1] (setting [3]) was in the range of 51 to 75%. Moreover, in data set [1] (setting [4]), the pest or weed control at 25 ppm was 26 to 50%. Also, in data set [1] (setting [5]), the pest or weed control at 100 ppm lay in the range of 76 to 100%.
The corresponding values for `Nc1nc(ON=Cc2ccccc2)ncc1F` [Compound 6] are 151 to 153 °C, 76 to 100%, 76 to 100%, 76 to 100% and 76 to 100%.
The corresponding values for `CC=NOc1ncc(F)c(NCc2ccc(OC)cc2)n1` [Compound 34] are 79 to 82 °C, 0 to 25%, 26 to 50%, 26 to 50% and 76 to 100%.
The like results for `CC(C)C=NOc1ncc(F)c(N(C)C)n1` [Compound 55] were, in that order, 90 to 92 °C, 0 to 25%, 0 to 25%, 0 to 25% and 0 to 25%.
As for `Fc1cnc(ON=Cc2ccccc2)nc1NCc1ccccc1` [Compound 21], the melting point was 111 to 113 °C. Further, the pest or weed control at 25 ppm in data set [1] (setting [2]) fell in the range of 0 to 25%. For the same molecule, the pest or weed control at 100 ppm in data set [1] (setting [3]) lay in the range of 76 to 100%. Also, the pest or weed control at 25 ppm in data set [1] (setting [4]) is 51 to 75%. In addition, in data set [1] (setting [5]), the pest or weed control at 100 ppm lay within 76 to 100%.
For `CC(C)C=NOc1ncc(F)c(NCc2ccc(Cl)cc2)n1` [Compound 30], the melting point lay within 200 to 205 °C. Also, the pest or weed control at 25 ppm in data set [1] (setting [2]) was in the range of 0 to 25%. Further, the pest or weed control at 100 ppm in data set [1] (setting [3]) fell in the range of 26 to 50%. Further, the pest or weed control at 25 ppm in data set [1] (setting [4]) fell in the range of 0 to 25%. Further, in data set [1] (setting [5]), the pest or weed control at 100 ppm lay in the range of 26 to 50%.
Take `COc1ccc(C=NOc2ncc(F)c(/N=C/N(C)C)n2)cc1` [Compound 13, N′-{5-Fluoro-2-[1-(4-methoxyphenyl)-methylideneaminooxy]pyrimidin-4-yl}-N,N-dimethylformamidine]: the melting point was 243 to 245 °C (dec.). Moreover, the pest or weed control at 25 ppm in data set [1] (setting [2]) lay within 76 to 100%. Besides, in data set [1] (setting [3]), the pest or weed control at 100 ppm was 76 to 100%. Also, the pest or weed control at 25 ppm in data set [1] (setting [4]) fell in the range of 76 to 100%. For the same molecule, the pest or weed control at 100 ppm in data set [1] (setting [5]) was in the range of 76 to 100%.
Molecule `Fc1cnc(ON=Cc2ccccc2)nc1NCc1ccc(Cl)cc1` [Compound 26] yielded a melting point of 127 to 128 °C. The pest or weed control at 25 ppm in data set [1] (setting [2]) lay within 0 to 25%. The pest or weed control at 100 ppm in data set [1] (setting [3]) lay within 0 to 25%. Also, the pest or weed control at 25 ppm in data set [1] (setting [4]) fell in the range of 26 to 50%. The pest or weed control at 100 ppm in data set [1] (setting [5]) was in the range of 26 to 50%.
`CC=NOc1ncc(F)c(NCc2ccc(Cl)cc2)n1` [Compound 29] showed a melting point of 116 to 117 °C. The pest or weed control at 25 ppm in data set [1] (setting [2]) lay within 0 to 25%. For the same molecule, the pest or weed control at 100 ppm in data set [1] (setting [3]) fell in the range of 26 to 50%. The pest or weed control at 25 ppm in data set [1] (setting [4]) was in the range of 0 to 25%. In addition, the pest or weed control at 100 ppm in data set [1] (setting [5]) was in the range of 51 to 75%.
Molecule `CN(Cc1ccc(Cl)cc1)c1nc(ON=Cc2ccc(Cl)cc2)ncc1F` [Compound 42] came in with a melting point of 115 to 116 °C. In data set [1] (setting [2]), the pest or weed control at 25 ppm was 0 to 25%. For the same molecule, the pest or weed control at 100 ppm in data set [1] (setting [3]) fell in the range of 26 to 50%. Besides, the pest or weed control at 25 ppm in data set [1] (setting [4]) fell in the range of 0 to 25%. Moreover, the pest or weed control at 100 ppm in data set [1] (setting [5]) is 0 to 25%.
Take `COc1ccc(CN(C)c2nc(ON=CC(C)C)ncc2F)cc1` [Compound 50]: the melting point lay within 110 to 112 °C. The pest or weed control at 25 ppm in data set [1] (setting [2]) was in the range of 0 to 25%. Moreover, in data set [1] (setting [3]), the pest or weed control at 100 ppm lay within 0 to 25%. For the same molecule, the pest or weed control at 25 ppm in data set [1] (setting [4]) fell in the range of 26 to 50%. For the same molecule, the pest or weed control at 100 ppm in data set [1] (setting [5]) lay in the range of 26 to 50%.
On to `CN(C)/C=N/c1nc(ON=Cc2ccccc2Cl)ncc1F` [Compound 3], for which the melting point is 186 to 210 °C (dec.). In addition, the pest or weed control at 25 ppm in data set [1] (setting [2]) was in the range of 76 to 100%. Further, the pest or weed control at 100 ppm in data set [1] (setting [3]) is 76 to 100%. In addition, the pest or weed control at 25 ppm in data set [1] (setting [4]) is 76 to 100%. Besides, in data set [1] (setting [5]), the pest or weed control at 100 ppm is 76 to 100%.
The molecule `COc1ccc(C=NOc2ncc(F)c(N(C)C)n2)cc1` [Compound 53] registered a melting point of 106 to 107 °C. In addition, the pest or weed control at 25 ppm in data set [1] (setting [2]) lay within 0 to 25%. Further, the pest or weed control at 100 ppm in data set [1] (setting [3]) fell in the range of 0 to 25%. Further, in data set [1] (setting [4]), the pest or weed control at 25 ppm was in the range of 0 to 25%. For the same molecule, the pest or weed control at 100 ppm in data set [1] (setting [5]) was in the range of 0 to 25%.
For the molecule `Fc1cnc(ON=Cc2ccc(Cl)cc2)nc1NCc1ccc(Cl)cc1` [Compound 27], the melting point lay in the range of 119 to 121 °C. Moreover, the pest or weed control at 25 ppm in data set [1] (setting [2]) was 0 to 25%. For the same molecule, the pest or weed control at 100 ppm in data set [1] (setting [3]) lay in the range of 26 to 50%. Further, in data set [1] (setting [4]), the pest or weed control at 25 ppm lay within 26 to 50%. For the same molecule, in data set [1] (setting [5]), the pest or weed control at 100 ppm lay within 51 to 75%.
`Fc1ccccc1CNc1nc(ON=Cc2ccc(Cl)cc2)ncc1F` [Compound 18] yielded a melting point of 98 to 103 °C. Also, the pest or weed control at 25 ppm in data set [1] (setting [2]) lay within 76 to 100%. In addition, the pest or weed control at 100 ppm in data set [1] (setting [3]) was 76 to 100%. The pest or weed control at 25 ppm in data set [1] (setting [4]) fell in the range of 0 to 25%. Besides, the pest or weed control at 100 ppm in data set [1] (setting [5]) fell in the range of 0 to 25%.
For `COc1ccccc1C=NOc1ncc(F)c(/N=C/N(C)C)n1` [Compound 14], the melting point was 220 to 230 °C (dec.). Further, the pest or weed control at 25 ppm in data set [1] (setting [2]) was 76 to 100%. The pest or weed control at 100 ppm in data set [1] (setting [3]) lay in the range of 76 to 100%. Besides, in data set [1] (setting [4]), the pest or weed control at 25 ppm was 76 to 100%. The pest or weed control at 100 ppm in data set [1] (setting [5]) fell in the range of 76 to 100%.
For the molecule `CC=NOc1ncc(F)c(N)n1` [Compound 10], the melting point was in the range of 102 to 105 °C. Further, in data set [1] (setting [2]), the pest or weed control at 25 ppm lay within 76 to 100%. For the same molecule, the pest or weed control at 100 ppm in data set [1] (setting [3]) fell in the range of 76 to 100%. Besides, the pest or weed control at 25 ppm in data set [1] (setting [4]) lay in the range of 76 to 100%. For the same molecule, the pest or weed control at 100 ppm in data set [1] (setting [5]) lay in the range of 76 to 100%.
